From ChEMBL document CHEMBL3885861, “Open TG-GATES”

Organism: Rattus norvegicus
Experiment: Open TG-GATES - Regimen: Daily Repeat
Type: toxicity, organism-based, Sprague-Dawley
Design: regimen Daily Repeat, gender Male, age 6 weeks
Conditions: in vivo, po, 150 mg/kg, route gavage, dose level High; for APTT / Bas / Eos / Fbg / Hb / Ht / Lym / MCH / MCHC / MCV / Mono / Neu / PT / Plat / RBC / Ret / WBC: tissue Blood; for KIDNEY_L / KIDNEY_R / KIDNEY_TOTAL: tissue Kidney; for LIVER: tissue Liver; for A/G / ALP / ALT / AST / BUN / CRE / Ca / Cl / DBIL / GLC / IP / K / LDH / Na / PL / RALB / TBIL / TC / TG / TP / gamma-GTP: tissue Plasma

## Nc1nc(N)c2nc(-c3ccccc3)c(N)nc2n1
72 h, time 3 day
  TERMINAL_BW: 243.7 g
  APTT: 16.1 s
  Bas: 0%
  Eos: 1%
  Fbg: 366.6 mg/dL
  Hb: 13.8 g/dL
  Ht: 40.7%
  Lym: 76.6%
  MCH: 21 pg
  MCHC: 33.8%
  MCV: 62 fL
  Mono: 2.8%
  Neu: 18.8%
  PT: 14 s
  Plat: 131.8 x10_4/uL
  RBC: 657.6 x10_4/ul
  Ret: 5.1%
  WBC: 90.9 x10_2/uL
  KIDNEY_L: 1 g
  KIDNEY_R: 1.1 g
  KIDNEY_TOTAL: 2.1 g
  LIVER: 11.3 g
  A/G: 0.9
  ALP: 1846.8 IU/L
  ALT: 44 IU/L
  AST: 67.2 IU/L
  BUN: 17.6 mg/dL
  CRE: 0.2 mg/dL
  Ca: 11.1 mg/dL
  Cl: 105.8 meq/L
  DBIL: 0.008 mg/dL
  GLC: 180.6 mg/dL
  IP: 7.9 mg/dL
  K: 3.9 meq/L
  LDH: 59 IU/L
  Na: 143.6 meq/L
  PL: 171 mg/dL
  RALB: 2.6 g/dL
  TBIL: 0.032 mg/dL
  TC: 90.6 mg/dL
  TG: 120.8 mg/dL
  TP: 5.6 g/dL
  gamma-GTP: 1 IU/L
[…], time 7 day
  TERMINAL_BW: 274.8 g
  APTT: 16.4 s
  Bas: 0.2%
  Eos: 1%
  Fbg: 354.2 mg/dL
  Hb: 13.5 g/dL
  Ht: 41.1%
  Lym: 78.2%
  MCH: 20.1 pg
  MCHC: 32.8%
  MCV: 61.2 fL
  Mono: 2.4%
  Neu: 18.2%
  PT: 14.1 s
  Plat: 132.7 x10_4/uL
  RBC: 672.4 x10_4/ul
  Ret: 5.4%
  WBC: 114.8 x10_2/uL
  KIDNEY_L: 1.3 g
  KIDNEY_R: 1.3 g
  KIDNEY_TOTAL: 2.6 g
  LIVER: 12.6 g
  A/G: 0.9
  ALP: 1286 IU/L
  ALT: 41.2 IU/L
  AST: 63.2 IU/L
  BUN: 18.8 mg/dL
  CRE: 0.2 mg/dL
  Ca: 11 mg/dL
  Cl: 104.2 meq/L
  DBIL: 0.014 mg/dL
  GLC: 188 mg/dL
  IP: 7.7 mg/dL
  K: 4 meq/L
  LDH: 62 IU/L
  Na: 143 meq/L
  PL: 149.6 mg/dL
  RALB: 2.6 g/dL
  TBIL: 0.072 mg/dL
  TC: 77 mg/dL
  TG: 126.8 mg/dL
  TP: 5.6 g/dL
  gamma-GTP: 1.2 IU/L
[…], time 14 day
  TERMINAL_BW: 323.6 g
  APTT: 20.2 s
  Bas: 0%
  Eos: 1%
  Fbg: 329.6 mg/dL
  Hb: 14.2 g/dL
  Ht: 43.2%
  Lym: 77.4%
  MCH: 19.5 pg
  MCHC: 33%
  MCV: 59.1 fL
  Mono: 2.2%
  Neu: 18.8%
  PT: 13 s
  Plat: 113.5 x10_4/uL
  RBC: 730.6 x10_4/ul
  Ret: 3.3%
  WBC: 94.3 x10_2/uL
  KIDNEY_L: 1.4 g
  KIDNEY_R: 1.4 g
  KIDNEY_TOTAL: 2.8 g
  LIVER: 13.2 g
  A/G: 0.8
  ALP: 1273.4 IU/L
  ALT: 41.6 IU/L
  AST: 66.4 IU/L
  BUN: 21.4 mg/dL
  CRE: 0.3 mg/dL
  Ca: 10.4 mg/dL
  Cl: 105.8 meq/L
  DBIL: 0.012 mg/dL
  GLC: 185.2 mg/dL
  IP: 7.5 mg/dL
  K: 3.7 meq/L
  LDH: 58.2 IU/L
  Na: 145 meq/L
  PL: 143.2 mg/dL
  RALB: 2.7 g/dL
  TBIL: 0.07 mg/dL
  TC: 75 mg/dL
  TG: 101.6 mg/dL
  TP: 5.9 g/dL
  gamma-GTP: 1.2 IU/L
[…], time 28 day
  TERMINAL_BW: 378.7 g
  APTT: 18.6 s
  Bas: 0.4%
  Eos: 1%
  Fbg: 320 mg/dL
  Hb: 15 g/dL
  Ht: 44.1%
  Lym: 78.8%
  MCH: 18.6 pg
  MCHC: 33.9%
  MCV: 54.9 fL
  Mono: 2.2%
  Neu: 16.8%
  PT: 13.3 s
  Plat: 127.8 x10_4/uL
  RBC: 803.2 x10_4/ul
  Ret: 2.1%
  WBC: 110.6 x10_2/uL
  KIDNEY_L: 1.7 g
  KIDNEY_R: 1.7 g
  KIDNEY_TOTAL: 3.4 g
  LIVER: 14.1 g
  A/G: 0.8
  ALP: 1120 IU/L
  ALT: 41.8 IU/L
  AST: 65.6 IU/L
  BUN: 21.4 mg/dL
  CRE: 0.3 mg/dL
  Ca: 10.7 mg/dL
  Cl: 106 meq/L
  DBIL: 0.008 mg/dL
  GLC: 178.2 mg/dL
  IP: 6.7 mg/dL
  K: 3.7 meq/L
  LDH: 44.6 IU/L
  Na: 144.8 meq/L
  PL: 160.4 mg/dL
  RALB: 2.7 g/dL
  TBIL: 0.064 mg/dL
  TC: 85.2 mg/dL
  TG: 106.2 mg/dL
  TP: 6.1 g/dL
  gamma-GTP: 1.4 IU/L
